Columns and labels:
[1] = test system: oxotremorine-induced salivation; experiment: In vivo rat salivation assay; conditions: for ID50 bladder/salivation selectivity ratio: comparison of ID50 values of rat bladder assay and rat salivation assay
Experimental: Female Sprague-Dawley rats weighing 200 to 300 g were anesthetized with urethane (1.5 g/kg, s.c., Sigma, St. Louis, Mo.), with a supplement of 0.25 g/kg, s.c. urethane as needed. Urethane was administered at a concentration of 0.25 g/mL.
Rats were placed on a heated blanket on their dorsal side in an inclined position (20° angle) position (head down). A swab was placed in the rat's mouth. The test compound or vehicle was administered intravenously via the tail vein. After 5 min., oxotremorine (1.0 mg/kg) was administered subcutaneously. The swab was discarded and replaced by a pre-weighed swab. Saliva was then collected for 10 min. and then the swab was removed and re-weighed to determine the output of saliva. Dose-response curves were fitted with a four parameter logistic equation to obtain estimates of ID50 (dose required to produce 50% of the maximal response).
By comparing the ID50 values determined in the rat bladder assay and rat salivation assay, the in vivo bladder/salivation selectivity ratio was calculated for the compounds tested.

hM2 receptor = molecular target: T1, hM2 receptor (Homo sapiens, UniProt P08172); experiment: Blockade of agonist-mediated GTPγ[35S] binding; type: biochemical; conditions: CHO-K1 cell membranes expressing hM2; carbachol at EC90
T1 construct: expressed in transfected cells; membrane preparation
T1 sequence (P08172 1-466): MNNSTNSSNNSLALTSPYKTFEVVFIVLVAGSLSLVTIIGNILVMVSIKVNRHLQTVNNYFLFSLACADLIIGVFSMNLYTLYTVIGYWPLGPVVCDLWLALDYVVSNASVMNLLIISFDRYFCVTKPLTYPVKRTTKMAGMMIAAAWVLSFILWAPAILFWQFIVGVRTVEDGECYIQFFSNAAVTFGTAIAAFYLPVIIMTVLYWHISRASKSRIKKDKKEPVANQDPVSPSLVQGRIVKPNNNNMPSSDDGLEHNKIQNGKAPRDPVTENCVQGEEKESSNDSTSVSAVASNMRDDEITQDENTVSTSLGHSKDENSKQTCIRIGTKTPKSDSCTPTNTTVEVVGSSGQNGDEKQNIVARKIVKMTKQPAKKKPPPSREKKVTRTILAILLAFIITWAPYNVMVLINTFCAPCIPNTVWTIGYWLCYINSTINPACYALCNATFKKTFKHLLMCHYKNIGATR
Experimental: A. Blockade of Agonist-Mediated GTPγ[^35S] Binding
In this assay, the functional potency of a test compound was determined by measuring the ability of the test compound to block carbachol-stimulated GTPγ[^35S] binding in CHO-K1 cells expressing the hM2 receptor.
CHO-K1 cells stably expressing the hM2 muscarinic receptor were grown in medium consisting of Hams F-12 media supplemented with 10% Fetal Bovine Serum and 500 μg/ml of Geneticin (G-418). Cells were incubated in a 5% CO2, humidified incubator at 37° C. Cells were grown to confluence and harvested with dPBS+2 mM EDTA and pelleted by centrifugation at 250×g for 10 minutes.
Cells from the centrifuged pellets were resuspended in homogenization buffer (10 mM HEPES, 10 mM EDTA, pH 7 at 4° C.). […]
To determine the ability of a test compound to inhibit carbachol-stimulated GTPγ[^35S] binding, the following was added to each well of 96 well plates: 25 μL of assay buffer with GTPγ[^35S] and GDP, 25 μL of diluted test compound (prepared as described above), and 25 μL CHO cell membranes expressing the hM2 receptor. […] After the pre-incubation period, 25 μL of carbachol at the final concentration of its EC90 value determined earlier in the day was added to each plate. […]
Test compound potency (IC50) was determined using iterative curve fitting (GraphPad Prism 3.0 software; single site competition curve). […]

[2] = molecular target: T2, hM3 muscarinic receptor subtype (Homo sapiens, UniProt P20309); experiment: Radioligand binding assay ([3H]NMS displacement), hM3; conditions: ratio of Ki values
T2 construct: expressed in transfected cells; membrane preparation
T2 sequence (P20309 whole entry): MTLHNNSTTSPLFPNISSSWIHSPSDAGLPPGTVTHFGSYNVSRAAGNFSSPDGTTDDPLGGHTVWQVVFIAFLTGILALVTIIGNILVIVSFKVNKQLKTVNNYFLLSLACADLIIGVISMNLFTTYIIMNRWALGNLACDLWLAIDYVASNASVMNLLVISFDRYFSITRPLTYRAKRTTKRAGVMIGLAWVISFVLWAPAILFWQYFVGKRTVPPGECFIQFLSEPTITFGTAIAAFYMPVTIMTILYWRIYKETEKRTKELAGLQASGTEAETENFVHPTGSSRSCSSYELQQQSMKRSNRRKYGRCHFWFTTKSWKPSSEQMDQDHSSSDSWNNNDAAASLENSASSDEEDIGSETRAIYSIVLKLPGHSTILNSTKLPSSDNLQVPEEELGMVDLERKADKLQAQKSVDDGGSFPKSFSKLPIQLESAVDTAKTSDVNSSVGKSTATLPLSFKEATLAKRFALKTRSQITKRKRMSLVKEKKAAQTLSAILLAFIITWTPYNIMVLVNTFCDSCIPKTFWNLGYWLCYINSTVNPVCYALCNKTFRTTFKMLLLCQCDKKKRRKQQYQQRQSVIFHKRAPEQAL
Experimental: (§1) A. Membrane Preparation from Cells Expressing hM1, hM2, hM3 and hM4 Muscarnic Receptor Subtypes
(§2) CHO (Chinese hamster ovary) cell lines stably expressing cloned human hM1, hM2, hM3 and hM4 muscarinic receptor subtypes, respectively, were grown to near confluency in medium consisting of HAM's F-12 supplemented with 10% FBS (Fetal Bovine Serum) and 250 μg/mL Geneticin. The cells were grown in a 5% CO2, 37° C. incubator and lifted with dPBS+2 mM EDTA. Cells were collected by 5 minute centrifugation at 650×g, and cell pellets were either stored frozen at −80° C. or membranes were prepared immediately. […] Protein concentration of the membrane suspension was determined by the method of Lowry, O. et al., (1951) Journal of Biochemistry: 193, 265. […]
(§3) Radioligand binding assays were performed in 96-well microtiter plates in a total assay volume of 100 μL. […] Filter plates were rinsed three times with wash buffer (10 mM HEPES) to remove unbound radioactivity. […] The plates were then counted in a PerkinElmer Topcount liquid scintillation counter (PerkinElmer Inc., Wellesley, Mass.). Binding data were analyzed by nonlinear regression analysis with the GraphPad Prism Software package (GraphPad Software, Inc., San Diego, Calif.) using the one-site competition model. […]

[3] = molecular target: T3, hM2 muscarinic receptor subtype (Homo sapiens, UniProt P08172); experiment: Radioligand binding assay ([3H]NMS displacement), hM2; conditions: [3H]NMS at 1 nM; membranes of CHO cells expressing hM2
T3 construct: expressed in transfected cells; membrane preparation
T3 sequence (P08172 1-466): T1 sequence (P08172 1-466)
Experimental: as §1, §2, §3

[4] = test system: volume-induced bladder contraction amplitude (VIBCAmp); experiment: In vivo rat bladder assay; conditions: anesthetized female Sprague-Dawley rats; intravenous; normalized to atropine response
Experimental: Female Sprague-Dawley rats (Harlan, Indianapolis, Ind.) weighing 200 to 300 g were anesthetized with urethane (1.5 g/kg, s.c., Sigma, St. Louis, Mo.), with a supplement of 0.25 g/kg, s.c. urethane as needed. Urethane was administered at a concentration of 0.25 g/mL.
Rats were prepared for surgery by shaving the neck and abdomen and cleansing with ethanol wipes. First, an incision was made on the ventral surface. An intravenous catheter was placed by isolating and ligating the femoral vein. […]
Thereafter, an intravenous dose of the test compound was administered and changes in VIBCAmp were recorded for 15 minutes. Atropine (0.1 mg/kg) was then administered intravenously (1 mL/kg) as a positive control and VIBCAmp and data was recorded for an additional 15 minutes. […]
Alternatively, after the vehicle, increasing cumulative intravenous doses of the test compound were administered at 15 minute intervals (1 mL/kg) and changes in VIBCAmp were recorded for 15 minutes. […]
The average VIBCAmp during the 5-15 minute period after test compound and atropine was determined and subtracted from the average VIBCAmp during the 5-15 minute post-vehicle period to obtain the test compound or atropine-induced change in VIBCAmp. […]

| Ki (hM2 receptor) [nM] | hM3/hM2 ratio [2] | Ki [3] [nM] | SMILES | ID50 bladder/salivation selectivity ratio [1] | ID50 (rat salivation assay) ([1]; anesthetized female Sprague-Dawley rats, intravenous, oxotremorine 1.0 mg/kg s.c.) | ID50 (rat bladder assay) [4] |
| --- | --- | --- | --- | --- | --- | --- |
| – | – | – | CCN(CC)CC#CCOC(=O)C(O)(c1ccccc1)C1CCCCC1 (centres unmarked) [oxybutynin, reference compound] | about 1.4 | – | – |
| – | – | – | Cc1ccc(O)c([C@H](CCN(C(C)C)C(C)C)c2ccccc2)c1 [tolterodine, reference compound] | ~4.8 | – | – |
| < 10 | greater than or equal to 5 | < 20 | COc1cccc(OC)c1CN1CCC(N(C)CCCCOCCCCN2CC[C@@H](C(C(N)=O)(c3ccccc3)c3ccccc3)C2)CC1 [Example 4] | greater than 10 | greater than or equal to 1 mg/kg | less than or equal to 0.1 mg/kg |

Source: patent US8080565B2, “Substituted 4-amino-benzylpiperidine compounds” (Theravance, Inc., priority 2003, dated 2011)
